Laboratory results reported in ChEMBL document CHEMBL3044945, “Synthesis of 1,3,5-trisubstituted pyrazoline nucleus containing compounds and screening for antimicrobial activity” (2012).
Converted amounts (≈) assume the structure as drawn.

Tests used:
Format in all cases: functional
Escherichia coli [1] = assay: Antibacterial activity against Escherichia coli MTCC 1573 at 750 ug/ml after 48 hr by cup-plate method; conditions: MTCC 1573, 48 h, read-out: DIZ
Aspergillus niger [2] = assay: Antifungal activity against Aspergillus niger MTCC 2546 after 24 to 48 hr by tube dilution method
Bacillus pumilus [3] = assay: Antibacterial activity against Bacillus pumilus MTCC 1456 after 24 to 48 hr by tube dilution method
Escherichia coli [4] = assay: Antibacterial activity against Escherichia coli MTCC 1573 at 1000 ug/ml after 48 hr by cup-plate method; conditions: MTCC 1573, 48 h, read-out: DIZ
Bacillus subtilis = assay: Antibacterial activity against Bacillus subtilis MTCC 441 at 1250 ug/ml after 48 hr by cup-plate method; conditions: MTCC 441, 48 h, read-out: DIZ
Pseudomonas fluorescens = assay: Antibacterial activity against Pseudomonas fluorescens MTCC 2421 at 100 ug/ml after 48 hr by cup-plate method; conditions: MTCC 2421, 48 h, read-out: DIZ
Pseudomonas aeruginosa = assay: Antibacterial activity against Pseudomonas aeruginosa MTCC 424 at 100 ug/ml after 48 hr by cup-plate method; conditions: MTCC 424, 48 h, read-out: DIZ
Micrococcus luteus [5] = assay: Antibacterial activity against Micrococcus luteus MTCC 1538 at 250 ug/ml after 48 hr by cup-plate method; conditions: MTCC 1538, 48 h, read-out: DIZ
Penicillium chrysogenum [6] = assay: Antifungal activity against Penicillium chrysogenum MTCC 161 at 100 ug/ml after 48 hr by cup-plate method; conditions: MTCC 161, 48 h, read-out: DIZ
Bacillus pumilus [7] = assay: Antibacterial activity against Bacillus pumilus MTCC 1456 at 1000 ug/ml after 48 hr by cup-plate method; conditions: MTCC 1456, 48 h, read-out: DIZ
Penicillium chrysogenum [8] = assay: Antifungal activity against Penicillium chrysogenum MTCC 161 after 24 to 48 hr by tube dilution method
Penicillium chrysogenum [9] = assay: Antifungal activity against Penicillium chrysogenum MTCC 161 at 1250 ug/ml after 48 hr by cup-plate method; conditions: MTCC 161, 48 h, read-out: DIZ
Staphylococcus aureus [10] = assay: Antibacterial activity against Staphylococcus aureus MTCC 1430 at 1250 ug/ml after 48 hr by cup-plate method; conditions: MTCC 1430, 48 h, read-out: DIZ
Penicillium chrysogenum [11] = assay: Antifungal activity against Penicillium chrysogenum MTCC 161 at 750 ug/ml after 48 hr by cup-plate method; conditions: MTCC 161, 48 h, read-out: DIZ
Aspergillus niger [12] = assay: Antifungal activity against Aspergillus niger MTCC 2546 at 250 ug/ml after 48 hr by cup-plate method; conditions: MTCC 2546, 48 h, read-out: DIZ
Micrococcus luteus [13] = assay: Antibacterial activity against Micrococcus luteus MTCC 1538 at 100 ug/ml after 48 hr by cup-plate method; conditions: MTCC 1538, 48 h, read-out: DIZ
Staphylococcus aureus [14] = assay: Antibacterial activity against Staphylococcus aureus MTCC 1430 at 100 ug/ml after 48 hr by cup-plate method; conditions: MTCC 1430, 48 h, read-out: DIZ

Structure (SMILES)	MIC (Aspergillus niger [2])	MIC (Bacillus pumilus [3])	MIC (Penicillium chrysogenum [8])	zone of inhibition at 750 µg/mL (Escherichia coli [1])	zone of inhibition at 1000 µg/mL (Escherichia coli [4])	zone of inhibition at 1250 µg/mL (Bacillus subtilis)	zone of inhibition at 100 µg/mL (Pseudomonas fluorescens)	zone of inhibition at 100 µg/mL (Pseudomonas aeruginosa)	zone of inhibition at 250 µg/mL (Micrococcus luteus [5])	zone of inhibition at 100 µg/mL (Penicillium chrysogenum [6])	zone of inhibition at 1000 µg/mL (Bacillus pumilus [7])	zone of inhibition at 1250 µg/mL (Penicillium chrysogenum [9])	zone of inhibition at 1250 µg/mL (Staphylococcus aureus [10])	zone of inhibition at 750 µg/mL (Penicillium chrysogenum [11])	zone of inhibition at 250 µg/mL (Aspergillus niger [12])	zone of inhibition at 100 µg/mL (Micrococcus luteus [13])	zone of inhibition at 100 µg/mL (Staphylococcus aureus [14])
O=[N+]([O-])c1ccc(C2CC(c3cccc4ccccc34)=NN2c2ccc([N+](=O)[O-])cc2)cc1 (stereo unspecified)	30 µg/mL (≈ 68.4 µM)	50 µg/mL (≈ 114 µM)	50 µg/mL (≈ 114 µM)	13 mm	15 mm	19 mm	9 mm	9 mm	9 mm	9 mm	18 mm	17 mm	13 mm	14 mm	13 mm		
O=[N+]([O-])c1ccc(C2CC(c3cccc4ccccc34)=NN2)cc1 (stereo unspecified)	50 µg/mL (≈ 158 µM)	30 µg/mL (≈ 94.5 µM)	50 µg/mL (≈ 158 µM)	13 mm	15 mm	19 mm		9 mm	10 mm	8 mm	17 mm	17 mm	16 mm	14 mm	9 mm	9 mm	9 mm

Further lines, with some results ahead:

MIC (Aspergillus niger [2])	MIC (Bacillus pumilus [3])	MIC (Penicillium chrysogenum [8])	Structure (SMILES)	zone of inhibition at 750 µg/mL (Escherichia coli [1])	zone of inhibition at 1000 µg/mL (Escherichia coli [4])	zone of inhibition at 1250 µg/mL (Bacillus subtilis)	zone of inhibition at 100 µg/mL (Pseudomonas fluorescens)	zone of inhibition at 100 µg/mL (Pseudomonas aeruginosa)	zone of inhibition at 250 µg/mL (Micrococcus luteus [5])	zone of inhibition at 100 µg/mL (Penicillium chrysogenum [6])	zone of inhibition at 1000 µg/mL (Bacillus pumilus [7])	zone of inhibition at 1250 µg/mL (Penicillium chrysogenum [9])	zone of inhibition at 1250 µg/mL (Staphylococcus aureus [10])	zone of inhibition at 750 µg/mL (Penicillium chrysogenum [11])	zone of inhibition at 250 µg/mL (Aspergillus niger [12])	zone of inhibition at 100 µg/mL (Micrococcus luteus [13])	zone of inhibition at 100 µg/mL (Staphylococcus aureus [14])
30 µg/mL (≈ 79.7 µM)	30 µg/mL (≈ 79.7 µM)	30 µg/mL (≈ 79.7 µM)	NC(=S)N1N=C(c2cccc3ccccc23)CC1c1ccc([N+](=O)[O-])cc1 (stereo unspecified)	14 mm	16 mm	22 mm	8 mm	10 mm	9 mm	10 mm	19 mm	23 mm	14 mm	19 mm	11 mm		
30 µg/mL (≈ 68.4 µM)	30 µg/mL (≈ 68.4 µM)	30 µg/mL (≈ 68.4 µM)	O=[N+]([O-])c1ccc(C2CC(c3cccc4ccccc34)=NN2c2ccccc2[N+](=O)[O-])cc1 (stereo unspecified)	13 mm	17 mm	17 mm	10 mm	13 mm	8 mm	13 mm	23 mm	26 mm	15 mm	20 mm	11 mm		
30 µg/mL (≈ 76.2 µM)	150 µg/mL (≈ 381 µM)	30 µg/mL (≈ 76.2 µM)	O=[N+]([O-])c1ccc(C2CC(c3cccc4ccccc34)=NN2c2ccccc2)cc1 (stereo unspecified)	13 mm	15 mm	21 mm	8 mm	9 mm	8 mm	10 mm	16 mm	18 mm	18 mm	15 mm	12 mm		
